Reference: patent US10294202B2, “Pyrrolidinones as herbicides” (FMC Corporation, priority 2013, dated 2019)

Tests used:
Test in all cases: Test A pre-/postemergence herbicide test
[1] = test system: morningglory; format: in vivo, Ipomoea spp.
Text: (§1) Seeds of plant species selected from bamyardgrass (Echinochloa crus-galli), kochia (Kochia scoparia), ragweed (common ragweed, Ambrosia elatior), ryegrass, Italian (Italian ryegrass, Lolium multiflorum), crabgrass, large (large crabgrass Digitaria sanguinalis), giant foxtail (Setaria faberii), morningglory (Ipomoea spp.), pigweed (Amaranthus retroflexus), velvetleaf (Abutilon theophrasti), wheat (Triticum aestivum), and corn (Zea mays) were planted into a blend of loam soil and sand and treated preemergence with a directed soil spray using test chemicals formulated in a non-phytotoxic solvent mixture which included a surfactant. At the same time, plants selected from these crop and weed species and also blackgrass (Alopecurus myosuroides), and galium (catchweed bedstraw, Galium aparine) were planted in pots containing the same blend of loam soil and sand and treated with postemergence applications of test chemicals formulated in the same manner. Plants ranged in height from 2 to 10 cm and were in the one- to two-leaf stage for the postemergence treatment. Treated plants and untreated controls were maintained in a greenhouse for approximately 10 days, after which time all treated plants were compared to untreated controls and visually evaluated for injury. Plant response ratings, summarized in Table A, are based on a 0 to 100 scale where 0 is no effect and 100 is complete control. A dash (-) response means no test result.

[2] = test system: pigweed; format: in vivo, Amaranthus retroflexus
Text: as §1

[3] = test system: wheat; format: in vivo, Triticum aestivum
Text: as §1

[4] = test system: velvetleaf; format: in vivo, Abutilon theophrasti
Text: as §1

[5] = test system: giant foxtail; format: in vivo, Setaria faberii
Text: as §1

[6] = test system: crabgrass, large; format: in vivo, Digitaria sanguinalis
Text: as §1

[7] = test system: barnyardgrass; format: in vivo, Echinochloa crus-galli
Text: as §1

[8] = test system: corn; format: in vivo, Zea mays
Text: as §1

[9] = Postemergence, 125 g ai/ha, 0 to 100 scale, 0 no effect, 100 complete control
[10] = Postemergence, 500 g ai/ha, 0 to 100 scale (0 no effect, 100 complete control)
[11] = Preemergence, 125 g ai/ha, visual rating on 0 to 100 scale (0 no effect, 100 complete control)
[12] = preemergence, 500 g ai/ha, 0 to 100 scale
[13] = Postemergence, 1000 g ai/ha, 0 to 100 scale (0 no effect, 100 complete control)
[14] = Preemergence, 1000 g ai/ha, visual rating on 0 to 100 scale (0 no effect, 100 complete control), approx. 10 days
[15] = preemergence, 1000 g ai/ha, 0 to 100 scale
[16] = preemergence, 1000 g ai/ha, 0 to 100 scale (0 no effect, 100 complete control)

N#Cc1ccccc1NC(=O)C1C(=O)NCC1c1ccccc1 (racemic) [Compound 86]
60: Plant response rating, Foxtail, Giant [5, 12] | Plant response rating, Crabgrass, Large [6, 10] | Crabgrass, Large plant response rating [6, 11]
80: Plant response rating, Crabgrass, Large [6, 12]
10: Plant response rating, Foxtail, Giant [5, 10]
20: Foxtail, Giant plant response rating [5, 11] | Plant response rating, Barnyardgrass [7, 10] | Plant response rating, Corn [8, 12]
40: Plant response rating, Barnyardgrass ([7]; preemergence, 500 g ai/ha, 0 to 100 scale (0 no effect, 100 complete control))
0: Plant response rating, Morningglory [1, 9] | Plant response rating, Morningglory [1, 10] | Morningglory plant response rating [1, 11] | Plant response rating, Morningglory [1, 12] | Plant response rating, Pigweed [2, 9] | Plant response rating, Pigweed [2, 10] | Pigweed plant response rating [2, 11] | Plant response rating, Pigweed [2, 12] | Plant response rating, Wheat [3, 9] | Plant response rating, Wheat [3, 10] | Wheat plant response rating [3, 11] | Plant response rating, Wheat [3, 12] | Plant response rating, Velvetleaf [4, 9] | Plant response rating, Velvetleaf [4, 10] | Velvetleaf plant response rating [4, 11] | Plant response rating, Velvetleaf [4, 12] | Plant response rating, Foxtail, Giant [5, 9] | Plant response rating, Crabgrass, Large [6, 9] | Plant response rating, Barnyardgrass [7, 9] | Barnyardgrass plant response rating [7, 11] | Plant response rating, Corn [8, 9] | Plant response rating, Corn [8, 10] | Corn plant response rating [8, 11]

O=C1NCC(c2ccc(F)c(F)c2)C1C(=O)Nc1cccc(=O)[nH]1 (racemic) [Compound 96]
0: Plant response rating, Morningglory [1, 13] | Plant response rating, Morningglory [1, 14] | Plant response rating, Pigweed [2, 13] | Plant response rating, Pigweed [2, 14] | Plant response rating, Wheat [3, 13] | Plant response rating, Wheat [3, 14] | Plant response rating, Velvetleaf [4, 13] | Plant response rating, Velvetleaf [4, 14] | Plant response rating, Foxtail, Giant [5, 13] | Plant response rating, Foxtail, Giant [5, 14] | Plant response rating, Crabgrass, Large [6, 13] | Plant response rating, Crabgrass, Large [6, 14] | Plant response rating, Barnyardgrass [7, 13] | Plant response rating, Barnyardgrass [7, 14] | Plant response rating, Corn [8, 13] | Plant response rating, Corn [8, 14]

Cn1ccc(C2CNC(=O)C2C(=O)Nc2ccccc2C(F)(F)F)n1 (racemic) [Compound 191]
0: Plant response rating, Morningglory [1, 13] | Plant response rating, Morningglory [1, 15] | Plant response rating, Pigweed [2, 13] | Plant response rating, Pigweed [2, 15] | Plant response rating, Wheat [3, 13] | Plant response rating, Wheat [3, 15] | Plant response rating, Velvetleaf [4, 13] | Plant response rating, Velvetleaf [4, 15] | Plant response rating, Foxtail, Giant [5, 13] | Plant response rating, Foxtail, Giant [5, 15] | Plant response rating, Crabgrass, Large [6, 13] | Plant response rating, Crabgrass, Large [6, 15] | Plant response rating, Barnyardgrass [7, 13] | Plant response rating, Barnyardgrass [7, 16] | Plant response rating, Corn [8, 13] | Plant response rating, Corn [8, 15]

Cn1ccc(C2CNC(=O)C2C(=O)Nc2cccc(F)c2F)n1 (racemic) [Compound 192]
0: Plant response rating, Morningglory [1, 13] | Plant response rating, Morningglory [1, 15] | Plant response rating, Pigweed [2, 13] | Plant response rating, Pigweed [2, 15] | Plant response rating, Wheat [3, 13] | Plant response rating, Wheat [3, 15] | Plant response rating, Velvetleaf [4, 13] | Plant response rating, Velvetleaf [4, 15] | Plant response rating, Foxtail, Giant [5, 13] | Plant response rating, Foxtail, Giant [5, 15] | Plant response rating, Crabgrass, Large [6, 13] | Plant response rating, Crabgrass, Large [6, 15] | Plant response rating, Barnyardgrass [7, 13] | Plant response rating, Barnyardgrass [7, 16] | Plant response rating, Corn [8, 13] | Plant response rating, Corn [8, 15]

Cn1cc(C2CNC(=O)C2C(=O)Nc2cccc(F)c2F)cn1 (racemic) [Compound 253]
0: Plant response rating, Morningglory [1, 15] | Plant response rating, Pigweed [2, 13] | Plant response rating, Pigweed [2, 15] | Plant response rating, Wheat [3, 13] | Plant response rating, Wheat [3, 15] | Plant response rating, Velvetleaf [4, 13] | Plant response rating, Velvetleaf [4, 15] | Plant response rating, Foxtail, Giant [5, 15] | Plant response rating, Crabgrass, Large [6, 15] | Plant response rating, Barnyardgrass [7, 13] | Plant response rating, Barnyardgrass [7, 16] | Plant response rating, Corn [8, 13] | Plant response rating, Corn [8, 15]
10: Plant response rating, Morningglory [1, 13]
20: Plant response rating, Foxtail, Giant [5, 13] | Plant response rating, Crabgrass, Large [6, 13]

Cn1cc(C2CNC(=O)C2C(=O)Nc2ccccc2F)cn1 (racemic) [Compound 254]
0: Plant response rating, Morningglory [1, 13] | Plant response rating, Morningglory [1, 15] | Plant response rating, Pigweed [2, 13] | Plant response rating, Pigweed [2, 15] | Plant response rating, Wheat [3, 13] | Plant response rating, Wheat [3, 15] | Plant response rating, Velvetleaf [4, 13] | Plant response rating, Velvetleaf [4, 15] | Plant response rating, Foxtail, Giant [5, 13] | Plant response rating, Crabgrass, Large [6, 13] | Plant response rating, Barnyardgrass [7, 13] | Plant response rating, Barnyardgrass [7, 16] | Plant response rating, Corn [8, 13] | Plant response rating, Corn [8, 15]
70: Plant response rating, Crabgrass, Large [6, 15]
40: Plant response rating, Foxtail, Giant [5, 15]

Cn1ccnc1C1CNC(=O)C1C(=O)Nc1ccccc1F (racemic) [Compound 255]
60: Plant response rating, Barnyardgrass [7, 16]
90: Plant response rating, Crabgrass, Large [6, 15]
0: Plant response rating, Morningglory [1, 13] | Plant response rating, Morningglory [1, 15] | Plant response rating, Pigweed [2, 13] | Plant response rating, Pigweed [2, 15] | Plant response rating, Wheat [3, 13] | Plant response rating, Wheat [3, 15] | Plant response rating, Velvetleaf [4, 13] | Plant response rating, Velvetleaf [4, 15] | Plant response rating, Foxtail, Giant [5, 13] | Plant response rating, Crabgrass, Large [6, 13] | Plant response rating, Barnyardgrass [7, 13] | Plant response rating, Corn [8, 13] | Plant response rating, Corn [8, 15]
70: Plant response rating, Foxtail, Giant [5, 15]

O=C1NCC(c2ccc(F)c(F)c2)C1C(=O)N(O)c1ccccc1 (stereo not shown) [Compound 71]
0: Plant response rating, Pigweed [2, 13] | Plant response rating, Pigweed [2, 14] | Plant response rating, Wheat [3, 13] | Plant response rating, Wheat [3, 14] | Plant response rating, Velvetleaf [4, 13] | Plant response rating, Velvetleaf [4, 14] | Plant response rating, Corn [8, 13] | Plant response rating, Corn [8, 14]
50: Plant response rating, Barnyardgrass [7, 13] | Plant response rating, Barnyardgrass [7, 14]
80: Plant response rating, Crabgrass, Large [6, 13] | Plant response rating, Crabgrass, Large [6, 14]
60: Plant response rating, Foxtail, Giant [5, 13] | Plant response rating, Foxtail, Giant [5, 14]
